Results taken from BigSolDB 2.1.

O=C(NC[C@H]1CN(c2ccc(N3CCOCC3=O)cc2)C(=O)O1)c1ccc(Cl)s1
solubility (mole fraction)
Conditions	in 1,4-dioxane	in 2-butanone	in 2-hexanone	in 3-pentanone	in acetone	in acetonitrile	in methyl acetate
273.15 K	–	3.47e-05	1.78e-05	2.43e-05	4.06e-05	4.82e-05	3.2e-05
278.15 K	–	4.55e-05	2.24e-05	3.11e-05	5.29e-05	6.11e-05	4.05e-05
283.15 K	–	5.9e-05	2.79e-05	3.94e-05	6.83e-05	7.68e-05	5.07e-05
288.15 K	0.000132	7.59e-05	3.45e-05	4.95e-05	8.74e-05	9.58e-05	6.31e-05
293.15 K	0.000158	9.67e-05	4.24e-05	6.17e-05	0.000111	0.000119	7.79e-05
298.15 K	0.000189	0.000122	5.17e-05	7.64e-05	0.00014	0.000146	9.54e-05
303.15 K	0.000224	0.000153	6.27e-05	9.39e-05	0.000175	0.000178	0.000116
308.15 K	0.000265	0.000191	7.54e-05	0.000115	0.000216	0.000216	0.000141
313.15 K	0.000311	0.000236	9.03e-05	0.000139	0.000267	0.00026	0.000169
318.15 K	0.000363	0.00029	0.000107	0.000168	0.000326	0.000312	0.000202
323.15 K	0.000422	–	–	–	–	–	–
328.15 K	0.000488	–	–	–	–	–	–
333.15 K	0.000562	–	–	–	–	–	–
